# Assays:
# Test in all cases: KINOMEscan
# Settings in all cases: read-out: Percent Control
# EPHA3 = EPHA3 (Homo sapiens, UniProt P29320)
# Experimental: (§1) The kinase engagement assay (KINOMEscan®) was performed by DiscoverX assessing binding abilities toward a set of kinases.
# BRSK1 = BRSK1 (Homo sapiens, UniProt Q8TDC3)
# Experimental: as §1
# CAMK1 = CAMK1 (Homo sapiens, UniProt Q14012)
# Experimental: as §1
# CSNK1G1 = CSNK1G1 (Homo sapiens, UniProt Q9HCP0)
# Experimental: as §1
# PIK3CA = PIK3CA (Homo sapiens, UniProt P42336)
# Experimental: as §1
# CLK3 = CLK3 (Homo sapiens, UniProt P49761)
# Experimental: as §1
# GRK4 = GRK4 (Homo sapiens, UniProt P32298)
# Experimental: as §1
# DMPK2 = DMPK2 (Homo sapiens, UniProt Q6DT37)
# Experimental: as §1
# BUB1 = BUB1 (Homo sapiens, UniProt O43683)
# Experimental: as §1
# PRKCQ = PRKCQ (Homo sapiens, UniProt Q04759)
# Experimental: as §1
# NEK7 = NEK7 (Homo sapiens, UniProt Q8TDX7)
# Experimental: as §1
# [1] = biological target: EGFR(L747-S752del, P753S) (Homo sapiens, UniProt P00533, DEL747-752/P753S)
# Experimental: as §1
# ADCK3 = ADCK3 (Homo sapiens, UniProt Q8NI60)
# Experimental: as §1
# AMPK-alpha1 = AMPK-alpha1 (Homo sapiens, UniProt Q13131)
# Experimental: as §1
# PDGFRB = PDGFRB (Homo sapiens, UniProt P09619)
# Experimental: as §1
# MYO3B = MYO3B (Homo sapiens, UniProt Q8WXR4)
# Experimental: as §1
# PFTK1 = PFTK1 (Homo sapiens, UniProt O94921)
# Experimental: as §1
# CSF1R = CSF1R (Homo sapiens, UniProt P07333)
# Experimental: as §1
# SYK = SYK (Homo sapiens, UniProt P43405)
# Experimental: as §1
# ABL2 = ABL2 (Homo sapiens, UniProt P42684)
# Experimental: as §1
# CSNK2A1 = CSNK2A1 (Homo sapiens, UniProt P68400)
# Experimental: as §1
# EGFR(T790M) = EGFR(T790M) (Homo sapiens, UniProt P00533, T790M)
# Experimental: as §1
# SIK2 = SIK2 (Homo sapiens, UniProt Q9H0K1)
# Experimental: as §1
# CDKL3 = CDKL3 (Homo sapiens, UniProt Q8IVW4)
# Experimental: as §1
# RIPK4 = RIPK4 (Homo sapiens, UniProt P57078)
# Experimental: as §1
# MAP3K3 = MAP3K3 (Homo sapiens, UniProt Q99759)
# Experimental: as §1
# MEK5 = MEK5 (Homo sapiens, UniProt Q13163)
# Experimental: as §1
# PIP5K2B = PIP5K2B (Homo sapiens, UniProt P78356)
# Experimental: as §1
# Sequence of CLK3 (P49761 whole entry): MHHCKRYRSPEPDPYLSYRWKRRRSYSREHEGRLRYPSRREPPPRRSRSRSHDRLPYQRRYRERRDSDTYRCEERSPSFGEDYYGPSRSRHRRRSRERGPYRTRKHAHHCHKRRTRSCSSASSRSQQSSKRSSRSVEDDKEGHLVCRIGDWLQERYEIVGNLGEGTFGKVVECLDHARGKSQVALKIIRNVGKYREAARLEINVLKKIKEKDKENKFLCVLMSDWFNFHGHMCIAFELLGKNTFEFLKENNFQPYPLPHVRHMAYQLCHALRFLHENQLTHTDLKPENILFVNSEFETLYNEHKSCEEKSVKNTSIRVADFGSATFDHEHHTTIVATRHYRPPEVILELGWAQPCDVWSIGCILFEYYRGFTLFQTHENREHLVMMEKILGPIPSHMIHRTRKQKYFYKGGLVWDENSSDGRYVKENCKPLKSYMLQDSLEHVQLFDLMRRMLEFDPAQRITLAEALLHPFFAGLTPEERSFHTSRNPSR
# Sequence of SIK2 (Q9H0K1 whole entry): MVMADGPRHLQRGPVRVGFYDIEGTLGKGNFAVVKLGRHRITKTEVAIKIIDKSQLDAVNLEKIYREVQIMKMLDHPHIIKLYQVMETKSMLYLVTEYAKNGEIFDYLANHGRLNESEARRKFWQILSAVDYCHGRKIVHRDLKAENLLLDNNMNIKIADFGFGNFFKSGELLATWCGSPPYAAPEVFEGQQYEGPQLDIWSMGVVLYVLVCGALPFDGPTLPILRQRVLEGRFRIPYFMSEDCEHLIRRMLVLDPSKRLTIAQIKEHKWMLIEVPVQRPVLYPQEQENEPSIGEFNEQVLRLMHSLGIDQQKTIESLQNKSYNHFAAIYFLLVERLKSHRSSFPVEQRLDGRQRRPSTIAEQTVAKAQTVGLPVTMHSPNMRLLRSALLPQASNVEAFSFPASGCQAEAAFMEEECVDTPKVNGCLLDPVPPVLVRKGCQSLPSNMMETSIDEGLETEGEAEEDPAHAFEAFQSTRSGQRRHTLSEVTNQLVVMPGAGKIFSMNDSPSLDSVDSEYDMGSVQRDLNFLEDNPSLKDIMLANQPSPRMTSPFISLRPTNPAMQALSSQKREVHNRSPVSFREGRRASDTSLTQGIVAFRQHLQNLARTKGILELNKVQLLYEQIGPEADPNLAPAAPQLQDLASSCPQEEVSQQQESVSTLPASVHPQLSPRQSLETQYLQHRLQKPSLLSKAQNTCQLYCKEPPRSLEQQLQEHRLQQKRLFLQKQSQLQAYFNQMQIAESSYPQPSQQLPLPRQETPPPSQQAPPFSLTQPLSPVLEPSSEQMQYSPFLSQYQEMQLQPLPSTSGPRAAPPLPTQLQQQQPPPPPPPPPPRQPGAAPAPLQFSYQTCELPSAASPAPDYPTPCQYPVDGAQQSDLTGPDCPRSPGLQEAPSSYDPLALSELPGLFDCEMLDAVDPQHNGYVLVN
# Sequence of ADCK3 (Q8NI60 163-647): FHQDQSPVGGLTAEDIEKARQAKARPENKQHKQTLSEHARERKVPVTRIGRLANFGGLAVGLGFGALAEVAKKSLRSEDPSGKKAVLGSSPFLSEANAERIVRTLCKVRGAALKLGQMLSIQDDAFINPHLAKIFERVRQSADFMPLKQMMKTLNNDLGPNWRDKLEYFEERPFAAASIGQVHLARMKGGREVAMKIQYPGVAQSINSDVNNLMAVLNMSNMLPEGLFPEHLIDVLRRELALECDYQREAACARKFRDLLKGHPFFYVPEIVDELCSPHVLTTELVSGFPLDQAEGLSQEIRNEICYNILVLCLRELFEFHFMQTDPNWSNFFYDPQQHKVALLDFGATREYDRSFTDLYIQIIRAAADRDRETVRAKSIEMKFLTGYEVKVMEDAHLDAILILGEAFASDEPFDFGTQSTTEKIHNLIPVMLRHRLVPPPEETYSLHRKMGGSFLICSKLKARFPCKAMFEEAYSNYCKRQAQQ
# Sequence of EGFR(T790M) (P00533 25-1210 T790M): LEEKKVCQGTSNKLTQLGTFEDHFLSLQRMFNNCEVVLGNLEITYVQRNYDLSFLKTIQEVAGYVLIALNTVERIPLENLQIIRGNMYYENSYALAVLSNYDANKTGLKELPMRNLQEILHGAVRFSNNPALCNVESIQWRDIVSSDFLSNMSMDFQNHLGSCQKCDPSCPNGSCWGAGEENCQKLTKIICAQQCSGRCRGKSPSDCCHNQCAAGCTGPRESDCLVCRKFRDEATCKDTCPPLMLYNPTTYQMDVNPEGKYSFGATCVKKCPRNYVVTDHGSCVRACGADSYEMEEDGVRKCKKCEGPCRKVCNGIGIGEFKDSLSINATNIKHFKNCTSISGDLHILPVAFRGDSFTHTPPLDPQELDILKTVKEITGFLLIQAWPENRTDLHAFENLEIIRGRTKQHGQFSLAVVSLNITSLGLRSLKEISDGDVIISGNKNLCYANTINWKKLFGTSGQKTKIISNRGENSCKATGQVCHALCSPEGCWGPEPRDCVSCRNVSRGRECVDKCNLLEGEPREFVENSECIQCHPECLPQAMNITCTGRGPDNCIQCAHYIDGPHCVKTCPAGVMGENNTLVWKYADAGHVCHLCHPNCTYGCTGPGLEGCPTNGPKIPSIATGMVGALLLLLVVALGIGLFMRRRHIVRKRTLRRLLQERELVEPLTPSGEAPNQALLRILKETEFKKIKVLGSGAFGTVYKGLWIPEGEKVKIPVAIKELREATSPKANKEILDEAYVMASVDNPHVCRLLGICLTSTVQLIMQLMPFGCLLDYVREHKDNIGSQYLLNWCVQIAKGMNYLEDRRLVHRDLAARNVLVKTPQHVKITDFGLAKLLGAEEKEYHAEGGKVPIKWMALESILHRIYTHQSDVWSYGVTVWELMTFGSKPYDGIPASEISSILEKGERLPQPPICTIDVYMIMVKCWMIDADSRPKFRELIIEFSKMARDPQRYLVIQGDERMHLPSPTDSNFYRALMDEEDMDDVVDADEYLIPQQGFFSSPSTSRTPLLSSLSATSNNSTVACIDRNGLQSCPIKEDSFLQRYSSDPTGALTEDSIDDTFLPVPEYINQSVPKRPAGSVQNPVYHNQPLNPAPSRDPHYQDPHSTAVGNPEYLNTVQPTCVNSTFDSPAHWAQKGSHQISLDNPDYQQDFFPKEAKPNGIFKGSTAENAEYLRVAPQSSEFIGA
# Sequence of PDGFRB (P09619 33-1106): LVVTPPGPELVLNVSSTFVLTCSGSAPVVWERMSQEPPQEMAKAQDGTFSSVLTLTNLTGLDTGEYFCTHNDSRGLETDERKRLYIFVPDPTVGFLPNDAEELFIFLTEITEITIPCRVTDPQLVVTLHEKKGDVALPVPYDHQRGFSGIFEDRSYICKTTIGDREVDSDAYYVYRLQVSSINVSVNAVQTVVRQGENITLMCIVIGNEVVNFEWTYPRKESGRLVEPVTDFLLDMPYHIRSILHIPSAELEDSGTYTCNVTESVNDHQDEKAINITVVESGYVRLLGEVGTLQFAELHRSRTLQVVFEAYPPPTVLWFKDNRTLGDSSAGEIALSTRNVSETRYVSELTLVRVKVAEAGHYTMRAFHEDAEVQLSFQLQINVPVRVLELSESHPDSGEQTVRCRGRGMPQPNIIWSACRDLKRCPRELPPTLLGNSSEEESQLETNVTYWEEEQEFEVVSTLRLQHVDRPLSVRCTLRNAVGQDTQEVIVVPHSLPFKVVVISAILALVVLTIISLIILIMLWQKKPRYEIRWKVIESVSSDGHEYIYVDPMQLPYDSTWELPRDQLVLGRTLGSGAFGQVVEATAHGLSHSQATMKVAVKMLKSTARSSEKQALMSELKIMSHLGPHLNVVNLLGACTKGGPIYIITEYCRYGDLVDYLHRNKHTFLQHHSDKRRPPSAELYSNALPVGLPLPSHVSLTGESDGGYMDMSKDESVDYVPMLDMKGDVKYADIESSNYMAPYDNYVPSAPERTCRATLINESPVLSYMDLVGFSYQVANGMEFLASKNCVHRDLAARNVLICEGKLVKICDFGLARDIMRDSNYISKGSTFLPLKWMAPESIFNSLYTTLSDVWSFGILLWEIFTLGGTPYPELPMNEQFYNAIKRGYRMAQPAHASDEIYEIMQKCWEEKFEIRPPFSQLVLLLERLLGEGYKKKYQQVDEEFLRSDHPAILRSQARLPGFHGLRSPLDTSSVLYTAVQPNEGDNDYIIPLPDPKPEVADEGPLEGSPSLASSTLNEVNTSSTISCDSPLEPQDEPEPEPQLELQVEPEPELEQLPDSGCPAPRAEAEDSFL
# Sequence of RIPK4 (P57078 whole entry): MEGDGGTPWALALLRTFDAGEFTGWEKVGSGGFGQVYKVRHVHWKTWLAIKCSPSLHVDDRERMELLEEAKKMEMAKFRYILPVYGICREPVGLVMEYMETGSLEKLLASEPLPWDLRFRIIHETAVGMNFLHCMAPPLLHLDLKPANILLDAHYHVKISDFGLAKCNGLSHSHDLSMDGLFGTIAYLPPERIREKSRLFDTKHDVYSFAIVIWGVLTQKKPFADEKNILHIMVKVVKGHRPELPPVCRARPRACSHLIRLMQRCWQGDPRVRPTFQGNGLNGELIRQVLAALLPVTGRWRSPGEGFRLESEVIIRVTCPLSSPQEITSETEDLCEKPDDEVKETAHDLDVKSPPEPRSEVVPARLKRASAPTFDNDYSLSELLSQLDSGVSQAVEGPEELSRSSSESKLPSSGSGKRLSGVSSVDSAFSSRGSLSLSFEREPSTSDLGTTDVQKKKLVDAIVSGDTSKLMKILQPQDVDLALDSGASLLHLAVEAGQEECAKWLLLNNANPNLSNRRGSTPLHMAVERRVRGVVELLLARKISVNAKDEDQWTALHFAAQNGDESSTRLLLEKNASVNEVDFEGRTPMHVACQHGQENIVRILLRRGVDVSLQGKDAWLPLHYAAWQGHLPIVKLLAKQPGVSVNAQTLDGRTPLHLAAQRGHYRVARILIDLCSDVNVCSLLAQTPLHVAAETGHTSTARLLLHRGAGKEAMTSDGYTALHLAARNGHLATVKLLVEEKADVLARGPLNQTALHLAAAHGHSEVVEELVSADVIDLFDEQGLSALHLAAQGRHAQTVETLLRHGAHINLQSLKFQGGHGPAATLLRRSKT
smiles,measurement,setting,value
"O=C1CCC(N2C(=O)c3cccc(NCCCCCCCCNC(=O)N4CC[C@H](NC5=Nc6cc(F)ccc6N(CC(F)F)c6ccc(Cl)cc65)C4)c3C2=O)C(=O)N1 (stereo partly drawn) [BJG-05-039, (3S)-3-((2-Chloro-5-(2,2-difluoroethyl)-8-fluoro-5H-dibenzo[b,e][1,4]diazepin-11-yl)amino)-N-(8-((2-(2,6-dioxopiperidin-3-yl)-1,3-dioxoisoindolin-4-yl)amino)octyl)pyrrolidine-1-carboxamide]",remaining binding at 10 µM,EPHA3,47%
same,remaining binding at 10 µM,BRSK1,51%
same,remaining binding at 10 µM,CAMK1,52%
same,remaining binding at 10 µM,CSNK1G1,52%
same,remaining binding at 10 µM,PIK3CA,60%
same,remaining binding at 10 µM,CLK3,62%
same,remaining binding at 10 µM,GRK4,71%
same,remaining binding at 10 µM,DMPK2,72%
same,remaining binding at 10 µM,BUB1,73%
same,remaining binding at 10 µM,PRKCQ,77%
same,remaining binding at 10 µM,NEK7,79%
same,remaining binding at 10 µM,[1],82%
same,remaining binding at 10 µM,ADCK3,83%
same,remaining binding at 10 µM,AMPK-alpha1,86%
same,remaining binding at 10 µM,PDGFRB,86%
same,remaining binding at 10 µM,MYO3B,88%
same,remaining binding at 10 µM,PFTK1,88%
same,remaining binding at 10 µM,CSF1R,89%
same,remaining binding at 10 µM,SYK,92%
same,remaining binding at 10 µM,ABL2,94%
same,remaining binding at 10 µM,CSNK2A1,96%
same,remaining binding at 10 µM,EGFR(T790M),97%
same,remaining binding at 10 µM,SIK2,97%
same,remaining binding at 10 µM,CDKL3,98%
same,remaining binding at 10 µM,RIPK4,98%
same,remaining binding at 10 µM,MAP3K3,100%
same,remaining binding at 10 µM,MEK5,100%
same,remaining binding at 10 µM,PIP5K2B,100%

# Reference: US20250312462A1, “PAK1 DEGRADERS AND METHODS OF USE THEREOF” (INSTITUTE FOR CANCER RESEARCH D/B/A THE RESEARCH INSTITUTE …, priority 2022, published 2025)
